# Values joined by “and” are separate entries in the source; they are usually repeats but may differ in a detail not shown here. Identical values can stand only once.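 96-well plates; 48 h exposure; 5 concentrations. Endpoints by linear interpolation between flanking doses. Not reached: highest tested concentration assigned. At the GI50, growth is halved. The concentration for full growth arrest is given as TGI.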
# What was measured:
# Experiment in all cases: growth of human tumour cells (NCI), 48 h
# [1] = test system: SF-268 CNS
# [2] = test system: MCF7 breast
# [3] = test system: U251 CNS
# [4] = test system: SW-620 colon
# [5] = test system: ACHN renal
# [6] = test system: SNB-19 CNS
# [7] = test system: A498 renal
# [8] = test system: CAKI-1 renal
# [9] = test system: IGROV1 ovarian
# [10] = test system: HS 578T breast
Structure (SMILES),TGI [1] [µM],TGI [2] [µM],TGI [3] [µM],TGI [4] [µM],TGI [5],TGI [6] [µM],TGI [7] [µM],TGI [8],TGI [9] [µM],TGI [10] [µM],GI50 [1] [µM],GI50 [3] [µM],GI50 [4] [µM],GI50 [7] [µM],GI50 [8] [µM],GI50 [9] [µM],GI50 [10] [µM],GI50 [5] [µM]
CC12CC(C/C1=N/O)C(C)(C)C2 (stereo unspecified),> 100,> 100,> 100,> 100,> 100 µM,> 100,> 100,> 100 µM,> 100,> 100,,,,,,,,
CNc1ccc(S(=O)Nc2ccccc2)cc1 (stereo unspecified),> 100,> 100,> 100,> 100,> 100 µM,> 100,,,> 100,> 100,,,,,,,,
O=C1C=C(N2CCN(c3ccccn3)CC2)C(=O)c2c(O)ccc(O)c21,> 56.2,18.6,23,45.2,> 56.2 µM,78.6,52.2,> 46.4 µM,43.5,> 70.3,,,,,,,,
Nc1ncc(/C=N/O)c(NCC2(CO)CC(CCc3ccccc3)C2)n1 (stereo unspecified),> 100,22.2,26.4,,,,29.1,> 100 µM,31.2,> 100,,,,,,,,
CC(C)(C)c1ccc(-c2nnc(-c3cc(C#N)cc(-c4nnc(-c5ccc(C(C)(C)C)cc5)o4)c3)o2)cc1,> 100,,> 100,> 100,> 100 µM,> 100,> 100,> 100 µM,> 100,> 100,,,,,,,,
COC(=O)C(NC(=O)CSc1nnc(COc2ccc(Cl)cc2)n1-c1ccccc1)C(C)C (stereo unspecified),44.9,> 100,> 100,> 100,> 100 µM,73,> 100,25.1 µM,36.8,,,,,,,,,
Cc1ccc2c(c1)CC1(C2=O)[C@H](c2ccccc2)C2C(=O)c3ccc(C)cc3C2[C@H]1c1ccccc1 (stereo partly specified),> 100,> 100,> 100,> 100,> 100 µM,> 100,> 100,> 100 µM,> 100,,,,,,,,,
N#CCCC1(CCC#N)CCCCCCC(CCC#N)(CCC#N)C(O)C1O (stereo unspecified),> 100,> 100,> 100,> 100,> 100 µM,> 100,> 100,> 100 µM,> 100,,,,,,,,,
CC1(C)COC(c2c(-c3ccccc3)noc2CS(=O)c2ccccc2)=N1 (stereo unspecified),> 100,,> 100,> 100,> 100 µM,> 100,> 100,> 100 µM,> 100,,,,,,,,,
Cc1cn([C@H]2[C@@H](CO)C[C@H]2O)c(=O)[nH]c1=O,> 100,> 100,> 100,> 100,> 100 µM,,> 100,> 100 µM,> 100,> 100,,,,,,,,
CCCCCCOc1ccc(C(=N)N(CCCC)CCCC)c2ccccc12,3.53,,2.97,3,,,2.45,2.86 µM,2.86,3.76,1.62,1.5,1.52,1.19,1.39,1.34,1.61,
CC(=O)Nc1ccc(C(=O)N2N=C(C)/C(=C/c3ccc(O)cc3)C2=O)cc1,> 100,,> 100,> 100,> 100 µM,> 100,,> 100 µM,,,,,,,,,,
OC12CCCCCC1(N1CCOCC1)c1ccccc12 (stereo unspecified),> 100,,> 100,> 100,> 100 µM,> 100,> 100,> 100 µM,> 100,,,,,,,,,
CNc1ccc(Cl)cc1S(=O)(=O)c1ccccc1[N+](=O)[O-],> 100,> 100,> 100,> 100,> 100 µM,> 100,> 100,,> 100,> 100,,,,,,,,
COC1=CC(=O)C2=C(C1=O)[C@H]1CC[C@]3(C)[C@@H](OC(C)=O)CC[C@H]3[C@@H]1CC2,> 100,,> 100,> 100,> 100 µM,> 100,> 100,> 100 µM,> 100,> 100,,,,,,,,
COc1ccc(/C=C2\CCC(CNc3ccc(Br)cc3)C2=O)cc1 (stereo unspecified),> 100,> 100,> 100,> 100,> 100 µM,> 100,> 100,> 100 µM,> 100,,,,,,,,,
COC(=O)CC(NC(=O)OCc1ccccc1)C(C(=O)OCc1ccccc1)C1(C)OCCO1 (stereo unspecified),> 100,,> 100,> 100,> 100 µM,> 100,> 100,,> 100,,,,,,,,,
CCOc1ccc(-c2oc(/C=N/NS(=O)(=O)c3ccc(C)cc3)c([N+](=O)[O-])c2-c2ccc(OCC)cc2)cc1,50.5,,21.2,7.76,23.7 µM,43.1,41.4,43.1 µM,32.3,,,,,,,,,
Cc1cc(=O)[nH]c(NNC(C#N)c2ccc([N+](=O)[O-])cc2)n1 (stereo unspecified),> 100,,> 100,> 100,> 100 µM,,,> 100 µM,> 100,,,,,,,,,
CCOC1=C2NC(Cc3ccc(F)cc3)=NC2C(=O)c2ccccc21 (stereo unspecified),,,> 100,,> 100 µM,,87.9,,> 100,,,,,,,,,
Nc1c(N=Nc2ccc(-c3ccc(N=Nc4c(O)ccc5cc(S(=O)(=O)O)cc(S(=O)(=O)O)c45)cc3)cc2)c(S(=O)(=O)O)cc2cc(S(=O)(=O)O)c(N=Nc3ccccc3)c(O)c12,> 100,> 100,> 100,> 100,,> 100,> 100,,> 100,,,,,,,,,
CCOC(=O)C1CCCCc2sc(N)c(C#N)c21 (stereo unspecified),,> 100,> 100,> 100,> 100 µM,> 100,> 100,,> 100,> 100,,,,,,,,
CC(C)CCCC(C)[C@H]1CC[C@H]2N=C(Nc3ccccc3)CCC[C@]12C (stereo partly specified),7.17,3.57,4.33,> 100,,17.1,10.8,7.07 µM,3.34,5.81,,,,,,,,

Structure (SMILES),TGI [1] [µM],TGI [2] [µM],TGI [3] [µM],TGI [4] [µM],TGI [5],TGI [6] [µM],TGI [7] [µM],TGI [8],TGI [9] [µM],TGI [10] [µM],GI50 [1] [µM],GI50 [3] [µM],GI50 [4] [µM],GI50 [7] [µM],GI50 [8] [µM],GI50 [9] [µM],GI50 [10] [µM],GI50 [5] [µM]
COc1cccc(CN(C(=O)/C=C\Sc2ccccc2)C(C)(C)C)c1,,> 100,> 100,> 100,> 100 µM,> 100,> 100,> 100 µM,> 100,,,,,,,,,
[N-]=[N+]=C(C(=O)C(=[N+]=[N-])C(=O)c1ccccc1)C(=O)c1ccccc1,> 100,> 100,,> 100,> 100 µM,> 100,,,> 100,> 100,,,,,,,,
Cc1cc2occ(-c3ccc(Cl)cc3)c2c(=O)o1,> 100,,> 100,> 100,> 100 µM,> 100,> 100,> 100 µM,> 100,,,,,,,,,
O=C1CSc2nnc(CCCCCCCCc3nnc4n3NC(=O)CS4)n2N1,> 100,> 100,> 100,> 100,> 100 µM,> 100,> 100,> 100 µM,> 100,,,,,,,,,
Cc1cc(S(=O)(=O)O)c(NC(=O)c2oc3cc(O)ccc3c(=O)c2C)cc1Cl,> 100,> 100,> 100,> 100,> 100 µM,> 100,,> 100 µM,> 100,> 100,,,,,,,,
O=S1(=O)OCCOS(=O)(=O)C1Cc1nc2ccccc2[nH]1,,> 100,> 100,,> 100 µM,> 100,,95.4 µM,,,,,,,,,,
CC(=O)NC1=C(NCC(C)C)C(=O)c2ccccc2C1=O,46.3,,> 100,33.1,> 100 µM,> 100,> 100,30.6 µM,> 100,,,,,,,,,
Cc1ccc(S(=O)(=O)N/N=C2\C3CC4CC(C3)C2C4)cc1 (stereo unspecified),,> 100,> 100,> 100,,> 100,,> 100 µM,> 100,> 100,,,,,,,,
COc1cc2cc(C(=O)N3CC(CCl)c4c3cc([N+](C)(C)Cc3ccc([N+](=O)[O-])n3C)c3ccccc43)[nH]c2c(OC)c1OC (stereo unspecified),> 100,12.5,> 100,> 100,> 100 µM,> 100,,> 19.9 µM,4.23,38.2,,,,,,,,
O=C1/C(=C\c2cccc(Oc3ccccc3)c2)SC(c2ccccc2)N1c1cccc([N+](=O)[O-])c1 (stereo unspecified),> 100,> 100,> 100,> 100,> 100 µM,> 100,> 100,> 100 µM,,> 100,,,,,,,,
Cc1cc2n([O-])cccc-2[n+](=O)c1,> 100,,> 100,> 100,> 100 µM,> 100,,> 100 µM,> 100,,,,,,,,,
CC(C)(C)CC(C)(C)c1ccc(OCCOCC[N+](C)(C)Cc2ccccc2)cc1,5.92,,4.44,21,32.9 µM and 26.7 µM,11.9,,38.2 µM and 30.8 µM,,4.81,,,,1.54,15.1,,1.61,6.95
C/C(=C\Cc1cc(O)ccc1O)CCc1c(C)cc(O)c(C=O)c1C,46,,67.6,> 100,44.3 µM,> 100,> 100,63.5 µM,50.5,,,,,,,,,
CCCCCCOP(=O)(OCCCCCC)OC(C(=O)OC)C(F)(F)F (stereo unspecified),> 100,> 100,> 100,> 100,> 100 µM,> 100,,> 100 µM,> 100,> 100,,,,,,,,
O=C(OCc1ccccc1C1CSCSC1)c1cc(C(=O)OCc2ccccc2C2CSCSC2)c(C(=O)OCc2ccccc2C2CSCSC2)cc1C(=O)OCc1ccccc1C1CSCSC1,> 100,,> 100,> 100,> 100 µM,,> 100,> 100 µM,> 100,,,,,,,,,
COC(=O)/C=C/c1ccc2c(c1)CC1(Cc3ccccc3C1)C2,,> 100,> 100,,> 100 µM,,> 100,,> 100,80.4,,,,,,,,
COc1ccc(C2=C(OC(=O)N(C)C)c3cccn3-c3cc(Cl)ccc3S2)cc1,> 10,> 10,,> 10,,,,> 10 µM,> 10,,,,,,,,,
COc1ccc(-c2nc(-c3cnccn3)n(C3OC(CO)C(O)C(O)C3O)n2)cc1 (stereo unspecified),> 100,> 100,> 100,> 100,,> 100,,,> 100,,,,,,,,,
COc1ccc(-c2c3ccccc3c(-c3ccc(OCCCCCBr)cc3)c3ccccc23)cc1,> 100,,,> 100,> 100 µM,> 100,,> 100 µM,> 100,,,,,,,,,
CC1(C)[C@@H]2CC[C@@]1(C)[C@H](O)[C@@H]2SCc1ccccc1,32.6,,31.7,74.9,24 µM,31.7,0.0578,43.1 µM,37.4,30.7,,,,,,,,
CO[P@]1(=O)O[C@@H](c2ccccc2)[C@H](O)[C@@]1(O)c1ccccc1,,> 100,> 100,> 100,> 100 µM,> 100,> 100,> 100 µM,> 100,,,,,,,,,
CC(=O)O[C@H]1C(=O)N(c2cc3c4ccccc4ccc3c3ccccc23)[C@@H]1c1ccccc1,> 100,> 100,> 100,,89.2 µM,> 100,89.6,35.5 µM,8.27,25.1,,,,,,,,
CC1=C2C(=O)c3ccccc3C(=O)[C@H]2C[C@@H](N2CCCCCC2=O)O1,36.3,,50.6,33.1,51.7 µM,39.2,> 100,35.5 µM,30.7,> 100,,,,,,,,

# — PubChem BioAssay (NCI)
